From ChEMBL document CHEMBL1201862, “PubChem BioAssay data set” (2004)
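In this assay, cells in 96-well plates receive the compound at five concentrations for 48 hours. Endpoints are linearly interpolated between the surrounding concentrations. GI50: concentration for 50% inhibition of growth.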 Active and inactive are the calls of the source. Rule as the data show it: active = GI50 up to about 1.1 µM and inactive = higher.

Key:
Assay in all cases: DTP human tumour cell line panel, 48 h
[1] = test system: OVCAR-8
[2] = test system: SK-MEL-28
[3] = test system: TK-10
[4] = test system: HT-29
[5] = test system: MOLT-4
[6] = test system: LXFL 529
[7] = test system: SN12C
[8] = test system: HCT-15
[9] = test system: LOX IMVI
[10] = test system: CAKI-1
[11] = test system: OVCAR-3
[12] = test system: RXF 393
[13] = test system: SNB-19
[14] = test system: SK-MEL-5
[15] = test system: XF498
[16] = test system: NCI-H23
[17] = test system: ACHN
[18] = test system: SW-620
[19] = test system: NCI-H226
[20] = test system: UACC-62
[21] = test system: SF-539
[22] = test system: A549
[23] = test system: KM-20L2
[24] = test system: HOP-18
[25] = test system: OVCAR-4
[26] = test system: HOP-62
[27] = test system: OVCAR-5
[28] = test system: M19-MEL
[29] = test system: SK-MEL-2
[30] = test system: Malme-3M
[31] = test system: UO-31
[32] = test system: K562
[33] = test system: RPMI-8226
[34] = test system: U-251
[35] = test system: HCC 2998
[36] = test system: SF-295
[37] = test system: KM12
[38] = test system: SNB-75
[39] = test system: DLD-1
[40] = test system: NCI-H522
[41] = test system: M14
[42] = test system: 786-0
[43] = test system: SF-268
[44] = test system: DMS-114
[45] = test system: NCI-H460
[46] = test system: IGROV-1
[47] = test system: SNB-78
[48] = test system: HCT-116
[49] = test system: COLO 205
[50] = test system: RXF 631
[51] = test system: DMS-273
[52] = test system: SR
[53] = test system: SK-OV-3
[54] = test system: UACC-257
[55] = test system: CCRF-CEM
[56] = test system: HOP-92
[57] = test system: EKVX
[58] = test system: HL-60
[59] = test system: A498

In the case of `O=C(c1ccccc1)[C@H]1Nc2ccc(Cl)cc2[C@H]2CCC[C@@H]12`, the GI50 [1] is reported as 23.3 µM (inactive), the GI50 [2] is reported as 19.4 µM (inactive) and the GI50 [3] is reported as 30.6 µM (inactive). The GI50 [4] was 21 µM (inactive), the GI50 [5] was 5.7 µM (inactive) and the GI50 [6] was 17.9 µM (inactive). The GI50 [7] was 14.6 µM (inactive), the GI50 [8] was 25.1 µM and the GI50 [9] was 6.85 µM (inactive). For the same compound, the GI50 [10] was 59.8 µM (inactive), the GI50 [11] was 27.2 µM (inactive) and the GI50 [12] was 14.8 µM (inactive). The GI50 [13] was > 100 µM (inactive), the GI50 [14] was 10.3 µM (inactive) and the GI50 [15] was 17.1 µM (inactive). For the same compound, the GI50 [16] was 23.9 µM (inactive), the GI50 [17] was 13.3 µM (inactive) and the GI50 [18] was 27.9 µM (inactive). For the same compound, the GI50 [19] was 13.6 µM (inactive), the GI50 [20] was 25.8 µM (inactive) and the GI50 [21] was 33.2 µM (inactive). The GI50 [22] was 42 µM (inactive), the GI50 [23] was 26.9 µM (inactive) and the GI50 [24] was 12.3 µM (inactive). For the same compound, the GI50 [25] was 26.2 µM (inactive), the GI50 [26] was > 100 µM (inactive) and the GI50 [27] was 23.7 µM (inactive). The GI50 [28] was 27.6 µM (inactive), the GI50 [29] was 19.7 µM (inactive) and the GI50 [30] was 22 µM (inactive). For the same compound, the GI50 [31] was 17.8 µM (inactive), the GI50 [32] was 15.4 µM (inactive) and the GI50 [33] was 11.9 µM (inactive). The GI50 [34] was 35.6 µM (inactive), the GI50 [35] was 30.5 µM (inactive) and the GI50 [36] was 32.1 µM (inactive). The GI50 [37] was 49.1 µM (inactive), the GI50 [38] was 21.7 µM (inactive) and the GI50 [39] was 21.8 µM (inactive). For the same compound, the GI50 [40] was 23.3 µM (inactive), the GI50 [41] was 11.7 µM (inactive) and the GI50 [42] was 44.9 µM (inactive). The GI50 [43] was 31.7 µM (inactive), the GI50 [44] was 23.6 µM (inactive) and the GI50 [45] was 24.5 µM (inactive). For the same compound, the GI50 [46] was > 100 µM (inactive), the GI50 [47] was 51.3 µM (inactive) and the GI50 [48] was 13.2 µM (inactive). The GI50 [49] was 25.1 µM (inactive), the GI50 [50] was 36.1 µM (inactive) and the GI50 [51] was 36.1 µM (inactive). The GI50 [52] was 7.21 µM (inactive).
In the case of `O=C(/C=C/c1ccccc1O)c1ccccc1Cl`, the GI50 [53] is reported as 45.8 µM (inactive), the GI50 [1] is reported as 58.6 µM (inactive) and the GI50 [2] is reported as > 100 µM (inactive). The GI50 [3] was 90.4 µM (inactive), the GI50 [54] was > 100 µM (inactive) and the GI50 [4] was > 100 µM (inactive). For the same compound, the GI50 [5] was 30.7 µM (inactive), the GI50 [6] was 30.5 µM (inactive) and the GI50 [55] was 19.3 µM (inactive). The GI50 [7] was 56.4 µM (inactive), the GI50 [56] was 28.8 µM (inactive) and the GI50 [8] was 28.6 µM. For the same compound, the GI50 [9] was 24.9 µM (inactive), the GI50 [10] was 49.8 µM (inactive) and the GI50 [11] was 38.1 µM (inactive). The GI50 [12] was 43.1 µM (inactive), the GI50 [13] was 45.1 µM (inactive) and the GI50 [14] was 42.3 µM (inactive). The GI50 [15] was 40.5 µM (inactive), the GI50 [16] was 21.1 µM (inactive) and the GI50 [17] was 51.5 µM (inactive). The GI50 [18] was 35.5 µM (inactive), the GI50 [19] was > 100 µM (inactive) and the GI50 [20] was 67.5 µM (inactive). The GI50 [21] was 44.5 µM (inactive), the GI50 [22] was > 100 µM (inactive) and the GI50 [23] was > 100 µM (inactive). For the same compound, the GI50 [57] was 41.6 µM (inactive), the GI50 [24] was 49.4 µM (inactive) and the GI50 [25] was 19.2 µM (inactive). For the same compound, the GI50 [26] was 75.7 µM (inactive), the GI50 [27] was > 100 µM (inactive) and the GI50 [28] was 64.6 µM (inactive). The GI50 [29] was 61.5 µM (inactive), the GI50 [30] was > 100 µM (inactive) and the GI50 [31] was 52.4 µM (inactive). The GI50 [32] was 23.4 µM (inactive), the GI50 [34] was 39.9 µM (inactive) and the GI50 [35] was 38.1 µM (inactive). For the same compound, the GI50 [36] was > 100 µM (inactive), the GI50 [37] was 24.6 µM (inactive) and the GI50 [38] was 14.8 µM (inactive). For the same compound, the GI50 [39] was 50.1 µM (inactive), the GI50 [40] was 31.3 µM (inactive) and the GI50 [41] was 54.5 µM (inactive). The GI50 [42] was 92.5 µM (inactive), the GI50 [43] was 44.5 µM (inactive) and the GI50 [58] was 15.3 µM (inactive). For the same compound, the GI50 [44] was 21.3 µM (inactive), the GI50 [45] was 34 µM (inactive) and the GI50 [46] was 32.6 µM (inactive). The GI50 [47] was 47.2 µM (inactive), the GI50 [48] was 48.6 µM (inactive) and the GI50 [49] was 33 µM (inactive). For the same compound, the GI50 [59] was 90.4 µM (inactive), the GI50 [50] was 52.7 µM (inactive) and the GI50 [51] was 40.2 µM (inactive). For the same compound, the GI50 [52] was 27.7 µM (inactive).
For `COC(=O)/C(=N\NC(C)(C)C)C(C(=O)OC)C(=O)C(=O)Nc1cc(Cl)ccc1Cl` (centres undefined), the GI50 [53] was > 100 µM (inactive), the GI50 [1] was > 100 µM (inactive) and the GI50 [2] was > 100 µM (inactive). The GI50 [3] was > 100 µM (inactive), the GI50 [54] was > 100 µM (inactive) and the GI50 [4] was > 100 µM (inactive). The GI50 [5] was > 100 µM (inactive), the GI50 [6] was > 100 µM (inactive) and the GI50 [55] was > 100 µM (inactive). For the same compound, the GI50 [7] was > 100 µM (inactive), the GI50 [56] was > 100 µM (inactive) and the GI50 [8] was greater than 100 µM. For the same compound, the GI50 [9] was > 100 µM (inactive), the GI50 [10] was > 100 µM (inactive) and the GI50 [11] was > 100 µM (inactive). For the same compound, the GI50 [12] was > 100 µM (inactive), the GI50 [13] was > 100 µM (inactive) and the GI50 [14] was > 100 µM (inactive). For the same compound, the GI50 [15] was > 100 µM (inactive), the GI50 [16] was > 100 µM (inactive) and the GI50 [17] was > 100 µM (inactive). The GI50 [18] was > 100 µM (inactive), the GI50 [19] was > 100 µM (inactive) and the GI50 [20] was > 100 µM (inactive). For the same compound, the GI50 [21] was > 100 µM (inactive), the GI50 [22] was > 100 µM (inactive) and the GI50 [23] was > 100 µM (inactive). The GI50 [57] was > 100 µM (inactive), the GI50 [24] was > 100 µM (inactive) and the GI50 [25] was > 100 µM (inactive). For the same compound, the GI50 [26] was > 100 µM (inactive), the GI50 [27] was > 100 µM (inactive) and the GI50 [28] was > 100 µM (inactive). For the same compound, the GI50 [29] was > 100 µM (inactive), the GI50 [30] was > 100 µM (inactive) and the GI50 [31] was > 100 µM (inactive). For the same compound, the GI50 [32] was > 100 µM (inactive), the GI50 [34] was > 100 µM (inactive) and the GI50 [35] was > 100 µM (inactive). The GI50 [36] was > 100 µM (inactive), the GI50 [37] was > 100 µM (inactive) and the GI50 [38] was > 100 µM (inactive). The GI50 [39] was > 100 µM (inactive), the GI50 [40] was > 100 µM (inactive) and the GI50 [41] was > 100 µM (inactive). The GI50 [42] was > 100 µM (inactive), the GI50 [43] was > 100 µM (inactive) and the GI50 [58] was > 100 µM (inactive). The GI50 [44] was > 100 µM (inactive), the GI50 [45] was > 100 µM (inactive) and the GI50 [46] was > 100 µM (inactive). The GI50 [47] was > 100 µM (inactive), the GI50 [48] was > 100 µM (inactive) and the GI50 [49] was > 100 µM (inactive). The GI50 [59] was > 100 µM (inactive), the GI50 [50] was > 100 µM (inactive) and the GI50 [51] was > 100 µM (inactive). The GI50 [52] was > 100 µM (inactive).
With `c1ccc2c(CN3CCC(C4CCN(Cc5cccc6ccccc56)CC4)CC3)cccc2c1` the GI50 [53] was 21.1 µM (inactive), the GI50 [3] was 17.7 µM (inactive) and the GI50 [54] was 2.1 µM (inactive). For the same compound, the GI50 [4] was 3.11 µM (inactive), the GI50 [5] was 5.7 µM (inactive) and the GI50 [6] was 5.74 µM (inactive). The GI50 [7] was > 63 µM (inactive), the GI50 [11] was 39.7 µM (inactive) and the GI50 [12] was 11.9 µM (inactive). For the same compound, the GI50 [14] was 4.22 µM (inactive), the GI50 [15] was 4.75 µM (inactive) and the GI50 [17] was 36.1 µM (inactive). The GI50 [20] was 5.64 µM (inactive), the GI50 [22] was 38.3 µM (inactive) and the GI50 [23] was 2.81 µM (inactive). For the same compound, the GI50 [24] was 40.1 µM (inactive), the GI50 [26] was 14.7 µM (inactive) and the GI50 [28] was 6.64 µM (inactive). The GI50 [29] was 6.21 µM (inactive), the GI50 [30] was 2.4 µM (inactive) and the GI50 [32] was 1.53 µM (inactive). For the same compound, the GI50 [33] was 3.66 µM (inactive), the GI50 [34] was 11.3 µM (inactive) and the GI50 [35] was 1.09 µM (active). For the same compound, the GI50 [36] was 7.64 µM (inactive), the GI50 [39] was 2.09 µM (inactive) and the GI50 [40] was 12.9 µM (inactive). The GI50 [41] was 1.92 µM (inactive), the GI50 [42] was 16 µM (inactive) and the GI50 [58] was 1.98 µM (inactive). For the same compound, the GI50 [44] was 2.64 µM (inactive), the GI50 [45] was 19 µM (inactive) and the GI50 [47] was 23.7 µM (inactive). For the same compound, the GI50 [49] was 1.72 µM (inactive), the GI50 [50] was 12.2 µM (inactive) and the GI50 [51] was 6.73 µM (inactive).
